Results published in ChEMBL document CHEMBL5331140, “Discovery of IACS-52825, a Potent and Selective DLK Inhibitor for Treatment of Chemotherapy-Induced Peripheral Neuropathy” (J Med Chem, 2023).
In brackets after ≈: the same amount, converted by molar mass.

Assays:
[1] = Metabolic stability in rat liver microsomes assessed as intrinsic clearance at 1 uM in presence of NADPH regenerating system measured for 45 mins by LC-MS/MS analysis; type: ADME, Microsome; conditions: read-out: CLH
[2] = Oral bioavailability in C57BL/6 mouse at 10 mg/kg administered via oral gavage and measured for 24 hrs by LC-MS/MS analysis; type: ADME, organism-based; conditions: C57BL/6, mouse, in vivo
[3] = Plasma clearance in C57BL/6 mouse at 0.3 mg/kg, iv administered via tail vein and measured for 24 hrs by LC-MS/MS analysis; type: ADME, organism-based
[4] = Volume of distribution at steady state in C57BL/6 mouse at 0.3 mg/kg, iv administered via tail vein and measured for 24 hrs by LC-MS/MS analysis; type: ADME, organism-based; conditions: in vivo, read-out: Vdss
[5] = Cmax in C57BL/6 mouse at 10 mg/kg administered via oral gavage and measured for 24 hrs by LC-MS/MS analysis; type: ADME, organism-based; parameters: dose 10 mg/kg, time 24 hrs, route po; conditions: in vivo
[6] = AUClast in C57BL/6 mouse at 10 mg/kg administered via oral gavage and measured for 24 hrs by LC-MS/MS analysis; type: ADME, organism-based; parameters: time 24 hrs, dose 10 mg/kg, route po; conditions: in vivo
[7] = Thermodynamic aqueous solubility of compound in phosphate buffer at pH 7 incubated for 1 hr under shaking condition by LC-MS/MS analysis; type: physicochemical; conditions: read-out: Therm_solubility
[8] = Thermodynamic aqueous solubility of compound in FaSSGF at pH 1.6 incubated for 1 hr under shaking condition by LC-MS/MS analysis; type: physicochemical; conditions: read-out: Therm_solubility
[9] = Permeability in wild type MDCK cells across apical to basolateral side at 5 uM incubated for 90 mins by LC-MS/MS analysis; type: ADME, cell-based, Canis lupus familiaris; conditions: dog, read-out: permeability
[10] = Permeability in MDCK-MDR1 cells across basolateral to apical side at 5 uM incubated for 90 mins by LC-MS/MS analysis; type: ADME, cell-based, Canis lupus familiaris; conditions: dog, read-out: permeability
[11] = Metabolic stability in dog liver microsomes assessed as intrinsic clearance at 1 uM in presence of NADPH regenerating system measured for 45 mins by LC-MS/MS analysis; type: ADME, Canis lupus familiaris, Microsome; conditions: read-out: CLH
[12] = Metabolic stability in monkey liver microsomes assessed as intrinsic clearance at 1 uM in presence of NADPH regenerating system measured for 45 mins by LC-MS/MS analysis; type: ADME, Macaca mulatta, Microsome; conditions: rhesus monkey, read-out: CLH
[13] = Metabolic stability in mouse hepatocytes assessed as intrinsic clearance at 2 uM measured for 120 mins by LC-MS analysis; type: ADME, cell-based, Hepatocyte; conditions: read-out: CLH
[14] = Metabolic stability in rat hepatocytes assessed as intrinsic clearance at 2 uM measured for 120 mins by LC-MS analysis; type: ADME, cell-based, Hepatocyte; conditions: read-out: CLH
[15] = Metabolic stability in monkey hepatocytes assessed as intrinsic clearance at 2 uM measured for 120 mins by LC-MS analysis; type: ADME, cell-based, Macaca mulatta, Hepatocyte; conditions: rhesus monkey, read-out: CLH
[16] = Metabolic stability in human hepatocytes assessed as intrinsic clearance at 2 uM measured for 120 mins by LC-MS analysis; type: ADME, cell-based, Hepatocyte; conditions: read-out: CLH
[17] = Plasma protein binding in rat at 5 uM incubated for 5 hrs by rapid equilibrium dialysis method; type: ADME, cell-free; conditions: read-out: PPB (converted)
[18] = Protein binding in mouse brain homogenate incubated for 5 hrs by UPLC-MS/MS analysis; type: ADME, tissue-based; conditions: read-out: PB (converted)
[19] = Volume of distribution at steady state in Sprague-Dawley rat at 3 mg/kg, po or 1 mg/kg, iv measured for 24 hrs by LC-MS/MS analysis; type: ADME, organism-based; conditions: in vivo
[20] = Cmax in Sprague-Dawley rat at 3 mg/kg, po or 1 mg/kg, iv measured for 24 hrs by LC-MS/MS analysis; type: ADME, organism-based; parameters: time 24 hrs, dose 3 mg/kg, route po; conditions: in vivo
[21] = AUClast in Sprague-Dawley rat at 3 mg/kg, po or 1 mg/kg, iv measured for 24 hrs by LC-MS/MS analysis; type: ADME, organism-based; parameters: time 24 hrs, dose 3 mg/kg, route po; conditions: in vivo
[22] = Volume of distribution at steady state in Beagle dog at 1 mg/kg, po or 0.3 mg/kg, iv measured for 24 hrs by LC-MS/MS analysis; type: ADME, organism-based, Canis lupus familiaris; conditions: in vivo
[23] = AUClast in Beagle dog at 1 mg/kg, po or 0.3 mg/kg, iv measured for 24 hrs by LC-MS/MS analysis; type: ADME, organism-based, Canis lupus familiaris; parameters: time 24 hrs, dose 1 mg/kg, route po; conditions: in vivo
[24] = Cmax in cynomolgus monkey at 1 mg/kg, po or 0.3 mg/kg, iv measured for 24 hrs by LC-MS/MS analysis; type: ADME, organism-based, Macaca fascicularis; parameters: dose 1 mg/kg, time 24 hrs, route po; conditions: in vivo
[25] = tested on: Mus musculus; experiment: Antiallodynic activity in po dosed C57BL/6 mouse model of cisplatin-induced mechanical allodynia assessed as increase in paw withdrawal threshold stimulated with cisplatin on day 1 to 5 and 10 to 15 followed by daily administration of compound starting from day 16 and measured for 43 days by von frey test; type: functional, organism-based; conditions: dose 3-30 mg/kg, time 28.0 day
[26] = Toxicity in rat measured after 14 days by IND-enabling study; conditions: in vivo, 336 h, time 14 day
[27] = Toxicity in monkey assessed as optic nerve swelling measured after 28 days by IND-enabling study; parameters: species or system Macaca mulatta; conditions: rhesus monkey, in vivo, 672 h; time 28 day
[28] = biological target: Voltage-gated inwardly rectifying potassium channel KCNH2 (Homo sapiens, UniProt Q12809)
Voltage-gated inwardly rectifying potassium channel KCNH2, sequence (Q12809 whole entry): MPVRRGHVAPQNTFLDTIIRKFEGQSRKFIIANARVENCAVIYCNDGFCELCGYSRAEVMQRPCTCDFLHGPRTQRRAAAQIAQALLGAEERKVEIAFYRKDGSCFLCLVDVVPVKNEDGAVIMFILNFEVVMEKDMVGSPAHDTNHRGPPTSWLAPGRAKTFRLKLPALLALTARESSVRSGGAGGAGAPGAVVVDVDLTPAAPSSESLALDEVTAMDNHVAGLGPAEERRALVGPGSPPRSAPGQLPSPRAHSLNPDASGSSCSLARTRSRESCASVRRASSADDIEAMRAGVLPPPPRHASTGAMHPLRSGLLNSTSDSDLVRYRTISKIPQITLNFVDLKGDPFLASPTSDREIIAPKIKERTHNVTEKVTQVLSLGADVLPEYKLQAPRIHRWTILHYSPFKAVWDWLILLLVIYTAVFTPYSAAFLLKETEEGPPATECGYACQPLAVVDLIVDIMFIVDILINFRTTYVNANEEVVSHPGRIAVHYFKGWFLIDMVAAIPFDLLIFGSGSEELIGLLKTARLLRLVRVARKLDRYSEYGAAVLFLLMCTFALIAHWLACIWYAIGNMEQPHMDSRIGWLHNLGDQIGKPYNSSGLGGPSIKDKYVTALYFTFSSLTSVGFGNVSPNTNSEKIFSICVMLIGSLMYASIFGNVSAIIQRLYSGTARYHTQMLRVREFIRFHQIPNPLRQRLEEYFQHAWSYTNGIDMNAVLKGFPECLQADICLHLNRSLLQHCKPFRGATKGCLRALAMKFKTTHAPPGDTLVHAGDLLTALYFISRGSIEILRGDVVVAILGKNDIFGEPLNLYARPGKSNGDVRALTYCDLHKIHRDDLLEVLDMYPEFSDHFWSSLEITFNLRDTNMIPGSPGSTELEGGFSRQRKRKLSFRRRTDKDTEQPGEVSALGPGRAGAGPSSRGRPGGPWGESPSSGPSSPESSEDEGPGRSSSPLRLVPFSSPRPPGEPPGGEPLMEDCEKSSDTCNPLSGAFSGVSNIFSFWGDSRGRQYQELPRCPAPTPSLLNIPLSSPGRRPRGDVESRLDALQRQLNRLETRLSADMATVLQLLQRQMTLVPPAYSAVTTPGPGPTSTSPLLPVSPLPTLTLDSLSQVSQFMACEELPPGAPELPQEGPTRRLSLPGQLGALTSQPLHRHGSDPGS
Description: Inhibition of hERG expressed in CHO cells at -80 mV holding potential by QPatch automated electrophysiology assay

Nc1ncc(-c2cn(C34CC(F)(C3)C4)c([C@@H](O)C(F)(F)F)n2)cc1OC(F)(F)F
CLint scaled at 1 µM [1]: 16 mL/min/kg
bioavailability [2]: > 100%
clearance [3]: 4.3 mL/min/kg
Vd [4]: 4.5 L/kg
Cmax [5]: 6400 nM
AUClast [6]: 111 µM·h
solubility thermodynamic at 1 h [7]: 0.033 mM (≈ 14.1 µg/mL)
solubility thermodynamic at 1 h [8]: 20.6 mM (≈ 8790 µg/mL)
Papp A→B at 1.5 h, 5 µM [9]: 38 ×10⁻⁶ cm/s
Papp B→A at 1.5 h, 5 µM [10]: 43 ×10⁻⁶ cm/s
CLint scaled at 1 µM [11]: 12 mL/min/kg
CLint scaled at 1 µM [12]: 11 mL/min/kg
CLint scaled at 2 µM [13]: 2.5 mL/min/kg
CLint scaled at 2 µM [14]: 4.4 mL/min/kg
CLint scaled at 2 µM [15]: 23 mL/min/kg
CLint scaled at 2 µM [16]: 11 mL/min/kg
fraction unbound at 5 h, 5 µM [17]: 0.118
fraction unbound at 5 h [18]: 0.039
Vdss [19]: 5.6 L/kg
Cmax [20]: 1300 nM
AUC(0-t) at 24 h [21]: 16.8 µM·h
Vdss [22]: 3.5 L/kg
AUC(0-t) at 24 h [23]: 15.3 µM·h
Cmax [24]: 350 nM
Activity [25]: Dose-Dependent Effect
Activity [26]: Non-Toxic
Activity [27]: Toxic
IC50 [28]: > 30 µM
